Values of other authors in patent publication US20210349074A1, “METHOD OF TESTING TEARS AS A BIOMARKER FOR CANNABINOIDS” (priority 2020, published 2021).

Conditions: during the first two hours after using cannabis

CCCCCc1cc(O)c2c(c1)OC(C)(C)[C@@H]1CCC(C)=C[C@@H]21 [THC, Δ9-tetrahydrocannabinol]
average drop of participants' THC blood levels: 5 ng/mL
